Patent US20230174473A1, “ANTIMICROBIAL AND ANTIVIRAL SULFUR CONTAINING GLYCEROL MONOESTER DERIVATIVES” (priority 2020, published 2023)
Values after ≈ are worked out from the molar mass of the structure shown.

Key:
[1] = tested on: Staphylococcus aureus strain MN8; assay: MIC and MBC assay, broth dilution with plate counts; type: cell-based; conditions: for minimum bactericidal concentration (MBC) / minimum inhibitory concentration (MIC): Staphylococcus Aureus MN8 strain, 24-hour incubation, Todd Hewitt broth, aerobic 37° C.; for activity compared with GML (log CFU/mL, FIGS. 1A and 1B): staphylococcus aureus MN8 cultured with various concentrations
Method: For this experiment, all cultures were aerobic at 37° C. with 150 RPM gyrotary shaking. Stationary phase with this microbe is 1.0x1010 colony-forming units (CFUs)/ml. The next morning the culture was diluted to approximately 5x10^6/ml in 1 ml amounts of Todd Hewitt broth in 5 ml polystyrene test tubes. The tubes contained serial two-fold dilutions of glycerol monolaurate, SGML, or […]. The control tubes contained no GML or SGML and […] compounds. The compounds were tested in triplicate. […] The control tube contained the highest volume of ethanol that was used to deliver the compounds to each 1 ml test tube. […] Once plated, the plates were incubated aerobically for 24 hours at 37° C. Counts were made to determine CFUs/ml. The CFUs/ml were log-transformed and mean ± SD were determined. Using the standard MIC and MBC assay above with staphylococcus aureus strain […] and […] were tested with GML.

Escherichia coli [2] = assay: MIC and MBC test with E. coli; type: cell-based; conditions: for effectiveness compared with GML (FIG. 3): E. coli MIC and MBC test; for Minimum Inhibitory Concentration / Mininum Bactericidal Concentration: E. coli laboratory strain from a patient with urinary tract infection, same conditions as S. aureus MN8
Method: The conditions for this test were the same as in the above example with S. aureus MN8. The E. coli strain was a laboratory strain from a patient with a confirmed urinary tract infection. The strain is maintained in the laboratory at -80° C.

Candida auris = assay: MIC/MBC at 24 hours; type: cell-based; conditions: Time 0 4.5E+05 CFU/ml
Method: Candida auris is a newly emerging yeast (fungus) that is causing skin and bloodstream infections in humans. It easily becomes resistant to anti-fungal agents, making development of novel therapeutics a necessity. This organism is related to Candida albicans and other Candida species. The MIC and MBC in the above table show very good activity of both the SGML and S2GML versus this organism.
(§1) All solutions used in the MBC and MIC studies were prepared from a stock of 100 mg/ml of either GML, SGML or S2GML in absolute ethanol.

Bacillus subtilis = assay: MIC/MBC at 24 hours; type: cell-based; conditions: Time 0 1.1E+07 CFU/ml, 200 RPM shaking at 37° C.
Method: Bacillus subtilis, an aerobic spore-former, was incubated with 200 RPM shaking at 37° C. The strain was a recent clinical isolate at the University of Iowa, and proves to develop resistance to standard […] agents.
as §1

TSST-1 = type: cell-based, Staphylococcus aureus
[3] = tested on: Lipase (glycerol ester hydrolase); assay: Lipase (glycerol ester hydrolase) assay, esterase resistance; type: biochemical, Staphylococcus aureus; conditions: 500 ug/ml compound; lipase 25 ug/ml; 24 hours at 37° C.
Method: Protocol for Lipase (glycerol ester hydrolase) assay: • 1. Two separate samples of lipase at 25 ug/ml were prepared. • 2. Microscope slides were made up with 500 ug/ml of GML, SGML, or S2ML compounds. • These slides contained 0.85% agarose (Difco) heat solubilized into PBS (0.005 M NaPO4 pH 7.2; 0.15MNaC1). • 3. The mixtures contained the compounds above their solubility limits, so they were vortexed, and 4.5 ml of the cloudy mixtures was spread onto microscope slides. • 4. The slides remained at room temperature for 1 hour to allow the agarose to solidify. • 5. The, 4 mm wells were punched into the agarose, twice per slide. • 6. 20 ul of the Lipase was added to each well. • 7. The slides were incubated for 24 hours at 37° C. • 8. The diameter squared was determined for each. This allows determination of hydrolysis of compound. • GML: 15 mm; 15 mm diameters (diameters squared=225 mm) • SGML: 12 mm; 13 mm diameters (diameters squared=144 mm and 169 mm for an average of 156.5 mm) • S2GML: 0 mm; 0 mm diameters (diameters squared=0) • 10. Diameter squared is used to the determination would be a straight line with a standard curve. • Set GML at 100% • 11. SGML is 70% as much as GML • 12. S2GML is 0% of GML

[4] = tested on: Streptococcus pyogenes (Group A streptococcus) 594; assay: MIC/MBC at 24 hours; type: cell-based; conditions: Streptococcus pyogenes GAS 594, Time 0 2.7E+06 CFU/ml, stationary at 37° C. in 5% CO2
Method: Streptococcus pyogenes (Group A streptococcus) 594 is a standard scarlet fever strain that has been extensively published on. The strain was incubated stationary at 37° C. in 5% CO2.
as §1

Pasteurella multocida = conditions: Gram Negative; Aerobe; 1 strain tested; cited from earlier work
Listeria monocytogenes = conditions: Gram Positive; Aerobe; 1 strain tested; cited from earlier work
Mycoplasma hominis = conditions: Cell Wall deficient; Aerobe; 1 strain tested; cited from earlier work
[5] = tested on: Bacillus anthracis Sterne; conditions: Gram Positive; Aerobe; 1 strain tested; cited from earlier work
[6] = tested on: Peptostreptococcus species; conditions: Gram Positive; Anaerobe; 1 strain tested; cited from earlier work
Staphylococcus aureus = conditions: Gram Positive; Aerobe; 54 strains tested; cited from earlier work
Bacillus cereus = conditions: Gram Positive; Aerobe; 1 strain tested; cited from earlier work
[7] = tested on: Prevotella melaninogenica; conditions: Gram Negative; Anaerobe; 1 strain tested; cited from earlier work
Salmonella Minnesota = conditions: Gram Negative; Aerobe; 1 strain tested; cited from earlier work
Bacteroides fragilis = conditions: Gram Negative; Anaerobe; 2 strains tested; cited from earlier work
Enterobacter aerogenes = conditions: Gram Negative; Aerobe; 1 strain tested; cited from earlier work
[8] = tested on: Haemophilus influenza Non-typable; conditions: Gram Negative; Aerobe; 2 strains tested; cited from earlier work
Campylobacter jejuni = conditions: Gram Negative; Aerobe; 1 strain tested; cited from earlier work
Group C Streptococcus = conditions: Gram Positive; Aerotolerant Anaerobe; 1 strain tested; cited from earlier work
Streptococcus agalactiae = conditions: Gram Positive; Aerotolerant Anaerobe; 3 strains tested; cited from earlier work
Neisseria gonorrhoeae = conditions: Gram Negative; Aerobe; 1 strain tested; cited from earlier work
Streptococcus suis = conditions: Gram Positive; Aerotolerant Anaerobe; 1 strain tested; cited from earlier work
Mycobacterium phlei = conditions: Acid Fast; Aerobe; 1 strain tested; cited from earlier work
Shigella sonnei = conditions: Gram Negative; Aerobe; 1 strain tested; cited from earlier work
Escherichia coli [9] = conditions: Gram Negative; Aerobe; 2 strains tested; cited from earlier work
[10] = tested on: glycerol ester hydrolase (lipase); assay: Lipase production by S. aureus in presence of GML; type: cell-based, Staphylococcus aureus; conditions: S. aureus strains
Pseudomonas aeruginosa = conditions: Gram Negative; Aerobe; 1 strain tested; cited from earlier work
Fusobacterium species = conditions: Gram Negative; Anaerobe; 1 strain tested; cited from earlier work
Klebsiella pneumoniae = conditions: Gram Negative; Aerobe; 1 strain tested; cited from earlier work
[11] = tested on: Streptococcus pneumoniae Serotype III; conditions: Gram Positive; Aerotolerant Anaerobe; 2 strains tested; cited from earlier work
[12] = tested on: Mycobacterium tuberculosis; conditions: Acid Fast; Aerobe; 1 strain tested; cited from earlier work
[13] = tested on: Gram-negative bacteria with an intact lipopolysaccharide, such as Escherichia coli; assay: Killing of Gram-negative bacteria with intact lipopolysaccharide by GML; type: cell-based
Streptococcus sanguinis = conditions: Gram Positive; Aerotolerant Anaerobe; 1 strain tested; cited from earlier work
Burkholderia cenocepacia = conditions: Gram Negative; Aerobe; 1 strain tested; cited from earlier work
Group F Streptococcus = conditions: Gram Positive; Aerotolerant Anaerobe; 1 strain tested; cited from earlier work
S. aureus strains = assay: Susceptibility of S. aureus strains to GML; type: cell-based, Staphylococcus aureus
Proteus vulgaris = conditions: Gram Negative; Aerobe; 1 strain tested; cited from earlier work
Streptococcus pyogenes = conditions: Gram Positive; Aerotolerant Anaerobe; 4 strains tested; cited from earlier work
Enterococcus faecalis = conditions: Gram Positive; Aerotolerant Anaerobe; 1 strain tested; cited from earlier work
[14] = tested on: Bordetella bronchiseptica; conditions: Gram Negative; Aerobe; 1 strain tested; cited from earlier work
Clostridium perfringens = conditions: Gram Positive; Anaerobe; 1 strain tested; cited from earlier work
[15] = tested on: Escherichia coli (e. coli); conditions: Welch et al., mBio 2020; cited from earlier work
Group G Streptococcus = conditions: Gram Positive; Aerotolerant Anaerobe; 1 strain tested; cited from earlier work
Gardnerella vaginalis = conditions: Gram Negative; Aerobe; 2 strains tested; cited from earlier work
[16] = tested on: other Gram-positive bacteria and Gram-negative bacteria with an incomplete lipopolysaccharide; assay: Killing of other bacteria by GML; type: cell-based; conditions: other Gram-positive bacteria and Gram-negative bacteria with lipo-oligosaccharide

For CCCCCCCCCCCC(=S)SCC(O)CO (stereo not drawn) [Example S2GML, glycerol dithionomonolaureate], the “minimum bactericidal concentration (MBC)” value [1] was 63.5 µg/mL (≈ 207 µM), the “minimum inhibitory concentration (MIC)” value [1] was 31.125 µg/mL (≈ 102 µM) and the “activity compared with GML (log CFU/mL, FIGS. 1A and 1B)” value [1] was “clearly has more activity”. For the same compound, the “effectiveness compared with GML (FIG. 3)” value (Escherichia coli [2]) was “performed similarly to GML”, the “Minimum Inhibitory Concentration” value (Escherichia coli [2]) was 500 µg/mL and the “Mininum Bactericidal Concentration” value (Escherichia coli [2]) was 500 µg/mL. For the same compound, the MIC/MBC (Candida auris) was 1.0 µg/mL (≈ 3.26 µM), the MIC/MBC (Bacillus subtilis) was under 1.0 µg/mL and the “inhibition of TSST-1” value (TSST-1) was under 4 µg/mL. For the same compound, the “hydrolysis as % of GML (diameter squared, GML set at 100%)” value [3] was 0% and the MIC/MBC [4] was under 0.1 µg/mL.

In the case of CCCCCCCCCCCC(=O)OCC(O)CO (stereo not drawn) [GML, glycerol monolaureate], the “Average Bactericidal Concentration” value (Pasteurella multocida) is listed as 500 mg/mL, the “Average Bactericidal Concentration” value (Listeria monocytogenes) is listed as 50 mg/mL and the “Average Bactericidal Concentration” value (Mycoplasma hominis) is listed as 1 mg/mL. For the same compound, the “Average Bactericidal Concentration” value [5] was 50 mg/mL, the “Average Bactericidal Concentration” value [6] was 1 mg/mL and the “Average Bactericidal Concentration” value (Staphylococcus aureus) was 300 mg/mL. The “Average Bactericidal Concentration” value (Bacillus cereus) was 50 mg/mL, the MBC ([1]; Staphylococcus aureus, MN8, 24 h, read-out: minimum bactericidal concentration (MBC)) was 250 µg/mL (≈ 911 µM) and the MIC ([1]; Staphylococcus aureus, MN8, 24 h, read-out: minimum inhibitory concentration (MIC)) was 250 µg/mL (≈ 911 µM). The “Average Bactericidal Concentration” value [7] was 50 mg/mL, the “Average Bactericidal Concentration” value (Salmonella Minnesota) was “Not Susceptible” and the “Mininum Bactericidal Concentration” value (Escherichia coli [2]) was 500 µg/mL. For the same compound, the MIC (Escherichia coli [2]; Escherichia coli, read-out: Minimum Inhibitory Concentration) was 500 µg/mL (≈ 1820 µM), the “Average Bactericidal Concentration” value (Bacteroides fragilis) was 50 mg/mL and the “Average Bactericidal Concentration” value (Enterobacter aerogenes) was “Not Susceptible”. For the same compound, the “Average Bactericidal Concentration” value [8] was 50 mg/mL, the “Average Bactericidal Concentration” value (Campylobacter jejuni) was 1 mg/mL and the “Average Bactericidal Concentration” value (Group C Streptococcus) was 30 mg/mL. For the same compound, the “Average Bactericidal Concentration” value (Streptococcus agalactiae) was 30 mg/mL, the “Average Bactericidal Concentration” value (Neisseria gonorrhoeae) was 20 mg/mL and the “Average Bactericidal Concentration” value (Streptococcus suis) was 50 mg/mL. For the same compound, the “Average Bactericidal Concentration” value (Mycobacterium phlei) was 100 mg/mL, the “Average Bactericidal Concentration” value (Shigella sonnei) was “Not Susceptible” and the “Average Bactericidal Concentration” value (Escherichia coli [9]) was “Not Susceptible”. For the same compound, the MIC/MBC (Candida auris) was 50 µg/mL (≈ 182 µM), the “GML concentration at which lipase cannot be produced” value [10] was “about 300 µg/ml” and the “Average Bactericidal Concentration” value (Pseudomonas aeruginosa) was “Not Susceptible”. The “Average Bactericidal Concentration” value (Fusobacterium species) was 50 mg/mL, the “Average Bactericidal Concentration” value (Klebsiella pneumoniae) was “Not Susceptible” and the “Average Bactericidal Concentration” value [11] was 10 mg/mL. The “Average Bactericidal Concentration” value [12] was 100 mg/mL, the concentration that kills ([13]; with accelerants: low pH and EDTA addition) was 25 to 50 µg/mL and the “susceptibility to GML” value ([13]; without accelerants) was “completely resistant”. The “Average Bactericidal Concentration” value (Streptococcus sanguinis) was 50 mg/mL, the “Average Bactericidal Concentration” value (Burkholderia cenocepacia) was 500 mg/mL and the “Average Bactericidal Concentration” value (Group F Streptococcus) was 20 mg/mL. The “concentration to which all S. aureus strains tested remain susceptible” value (S. aureus strains; all strains of S. aureus tested) was at most 500 µg/mL, the bactericidal concentration (S. aureus strains; most S. aureus strains) was 250 µg/mL and the “Average Bactericidal Concentration” value (Proteus vulgaris) was “Not Susceptible”. For the same compound, the MIC/MBC (Bacillus subtilis) was 50 µg/mL (≈ 182 µM), the “Average Bactericidal Concentration” value (Streptococcus pyogenes) was 30 mg/mL and the “Average Bactericidal Concentration” value (Enterococcus faecalis) was 100 mg/mL. For the same compound, the “inhibition of TSST-1” value (TSST-1) was 16 µg/mL, the “Average Bactericidal Concentration” value [14] was 1 mg/mL and the “Average Bactericidal Concentration” value (Clostridium perfringens) was 1 mg/mL. For the same compound, the “effectiveness against Escherichia coli” value [15] was “not effective”, the “Average Bactericidal Concentration” value (Group G Streptococcus) was 50 mg/mL and the “Average Bactericidal Concentration” value (Gardnerella vaginalis) was 10 mg/mL. It also gave an MIC/MBC [4] of 1.0 µg/mL (≈ 3.64 µM) and a concentrations that kill [16] of 25 to 50 µg/mL.

With CCCCCCCCCCCC(=S)OCC(O)CO (stereo not drawn) [SGML, glycerol thionomonolaureate] the “minimum bactericidal concentration (MBC)” value [1] was 125 µg/mL (≈ 430 µM), the “minimum inhibitory concentration (MIC)” value [1] was 125 µg/mL (≈ 430 µM) and the “activity compared with GML (log CFU/mL, FIGS. 1A and 1B)” value [1] was “more active than GML”. For the same compound, the “effectiveness compared with GML (FIG. 3)” value (Escherichia coli [2]) was “more effective than GML”, the “Minimum Inhibitory Concentration” value (Escherichia coli [2]) was 250 µg/mL and the “Mininum Bactericidal Concentration” value (Escherichia coli [2]) was 250 µg/mL. For the same compound, the MIC/MBC (Candida auris) was 10 µg/mL (≈ 34.4 µM), the MIC/MBC (Bacillus subtilis) was 10 µg/mL (≈ 34.4 µM) and the “inhibition of TSST-1” value (TSST-1) was 8 µg/mL. For the same compound, the “hydrolysis as % of GML (diameter squared, GML set at 100%)” value [3] was 70% and the MIC/MBC [4] was 0.1 µg/mL (≈ 0.344 µM).
